Assay [1] concerns the target T1, Amine oxidase [flavin-containing] A (Homo sapiens, UniProt P21397).
T1 sequence (P21397 whole entry): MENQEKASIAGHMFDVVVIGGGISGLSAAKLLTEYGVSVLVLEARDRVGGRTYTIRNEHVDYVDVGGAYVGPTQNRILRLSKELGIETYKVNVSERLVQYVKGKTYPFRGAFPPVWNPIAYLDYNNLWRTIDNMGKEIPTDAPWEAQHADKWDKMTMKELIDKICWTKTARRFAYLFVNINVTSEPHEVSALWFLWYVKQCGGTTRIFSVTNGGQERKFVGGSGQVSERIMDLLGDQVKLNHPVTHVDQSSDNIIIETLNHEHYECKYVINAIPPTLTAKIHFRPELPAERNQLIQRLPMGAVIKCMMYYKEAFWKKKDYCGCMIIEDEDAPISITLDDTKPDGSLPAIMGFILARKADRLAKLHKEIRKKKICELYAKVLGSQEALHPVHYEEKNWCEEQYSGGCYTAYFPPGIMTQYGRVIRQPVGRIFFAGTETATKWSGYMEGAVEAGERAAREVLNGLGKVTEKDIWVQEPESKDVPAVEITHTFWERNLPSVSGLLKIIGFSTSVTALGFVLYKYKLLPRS
In words: Inhibition of MAO-A (unknown origin) by luciferase […] assay. (In general: A reporter such as luciferase makes a cellular process visible.)

Assay [2] has as its system Mycobacterium tuberculosis. In words: Ratio of mefloquine MIC to compound MIC for Mycobacterium tuberculosis H37Rv. Format: functional.
In assay [3] the test system is Enterococcus faecalis. In words: Antibacterial activity against Enterococcus faecalis ATCC 29212 assessed as growth inhibition after 16 to 20 hrs by broth microdilution method. The format is functional. For orientation: In broth dilution the organism is exposed to a series of concentrations in liquid medium.
Assay [4] has as its system Staphylococcus aureus. In words: Antibacterial activity against methicillin-resistant Staphylococcus aureus ATCC 33591 assessed as growth inhibition after 16 to 20 hrs by broth microdilution method. Format: functional.
Assay [5] has as its system Staphylococcus aureus. In words: Antibacterial activity against linezolid-resistant Staphylococcus aureus PTCC 100 assessed as growth inhibition after 16 to 20 hrs by broth microdilution method. Format: functional.
Assay [6] deals with Staphylococcus aureus. In words: Antibacterial activity against methicillin-sensitive Staphylococcus aureus ATCC 29213 assessed as growth inhibition after 16 to 20 hrs by broth microdilution method. Format: functional.
The test system of assay [7] is Enterococcus faecium. In words: Antibacterial activity against Enterococcus faecium ATCC 700221 assessed as growth inhibition after 16 to 20 hrs by broth microdilution method. The format is functional.
In assay [8] the test system is Enterococcus faecalis. In words: Antibacterial activity against Enterococcus faecalis assessed as growth inhibition. Format: functional.
In assay [9] the test system is Staphylococcus aureus. In words: Antibacterial activity against methicillin-resistant Staphylococcus aureus assessed as growth inhibition. Format: functional.
The test system of assay [10] is Staphylococcus epidermidis. In words: Antibacterial activity against Staphylococcus epidermidis assessed as growth inhibition. The format is functional.
The test system of assay [11] is Haemophilus influenzae. In words: Ratio of linezolid MIC to compound MIC for Haemophilus influenzae. The format is functional.
Assay [12] deals with Staphylococcus aureus. In words: Ratio of linezolid MIC to compound MIC for multidrug-resistant Staphylococcus aureus. The format is functional.
In the next assay the test system is Escherichia coli. In words: Ratio of linezolid MIC to compound MIC for Escherichia coli. The format is functional.
For assay [13], the system named is Staphylococcus epidermidis. In words: Ratio of linezolid MIC to compound MIC for multidrug-resistant Staphylococcus epidermidis. Format: functional.
The subject of assay [14] is Enterococcus faecium. In words: Ratio of linezolid MIC to compound MIC for multidrug-resistant Enterococcus faecium. The format is functional.
The subject of assay [15] is Enterococcus faecalis. In words: Ratio of linezolid MIC to compound MIC for multidrug-resistant Enterococcus faecalis. The format is functional.
In assay [16] the test system is Enterococcus. In words: Ratio of tedizolid MIC to compound MIC for Enterococcus spp. The format is functional.
Assay [17] relates to Staphylococcus aureus. In words: Ratio of tedizolid MIC to compound MIC for methicillin-resistant Staphylococcus aureus. Format: functional.
The subject of assay [18] is Haemophilus influenzae. In words: Ratio of tedizolid MIC to compound MIC for Haemophilus influenzae. Format: functional.
Assay [19] deals with Staphylococcus aureus. In words: Ratio of linezolid MIC to compound MIC for methicillin-resistant Staphylococcus aureus. Format: functional.
For assay [20], the system named is Enterococcus. In words: Ratio of linezolid MIC to compound MIC for Enterococcus spp. Format: functional.
The test system of assay [21] is Streptococcus pneumoniae. In words: Ratio of tedizolid MIC to compound MIC for Streptococcus pneumoniae. The format is functional.
The test system of assay [22] is Streptococcus pneumoniae. In words: Ratio of linezolid MIC to compound MIC for Streptococcus pneumoniae. Format: functional.

≈ marks a conversion by molar mass, not a printed value.

The values that follow come from ChEMBL document CHEMBL2390905, “Recent development of potent analogues of oxazolidinone antibacterial agents” (Bioorg Med Chem, 2013).

Take `Cn1nnc(-c2ccc(-c3ccc(N4C[C@H](CO)OC4=O)cc3F)cn2)n1` [TEDIZOLID]: the Ki (commonly a measure of affinity in units of concentration, obtained from inhibition or displacement) in assay [1] is < 2 µM.

`CCOC(=O)c1cc(COc2cc(C(F)(F)F)nc3c(C(F)(F)F)cccc23)on1`: the Ratio in [2] was determined as 14.4.

In the case of `O=C(/C=C/c1ccccc1)NC[C@H]1CN(c2cc(F)c(N3CCN(C(=O)CNC(=O)c4cn5cccnc5n4)CC3)c(F)c2)C(=O)O1`, the MIC – broadly, the lowest concentration that inhibits growth of the organism – with Enterococcus faecalis [3] stood at 0.125 µg/mL (≈ 0.194 µM); in the assay on Staphylococcus aureus [4], 0.125 µg/mL (≈ 0.194 µM); in the assay on Staphylococcus aureus [5] it was 1 µg/mL (≈ 1.55 µM); in the assay on Staphylococcus aureus [6], 0.125 µg/mL (≈ 0.194 µM); in the assay on Enterococcus faecium [7], 0.25 µg/mL (≈ 0.388 µM).

Turning to `CC(=O)NC[C@H]1CN(c2ccc(N3CCN(C(=O)C(Cl)Cl)CC3)c(F)c2)C(=O)O1`, the minimum inhibitory concentration (MIC) in the assay on Enterococcus faecalis [8] was determined as 0.5 µg/mL (≈ 1.12 µM); in the assay on Staphylococcus aureus [9], 1 µg/mL (≈ 2.24 µM); in assay [10], 1 µg/mL (≈ 2.24 µM).

With `CC(=O)NC[C@H]1CN(c2ccc(-c3ccc(C(=O)NN)cc3)c(F)c2)C(=O)O1`, the Ratio (in the assay with Haemophilus influenzae [11]; with Staphylococcus aureus [12]; with Escherichia coli; in assay [13]; in the assay with Enterococcus faecium [14]; in the assay on Enterococcus faecalis [15]) was 2 each time.

In assay [1], `CC(=O)NC[C@H]1CN(c2ccc(N3C=NN(C)CC3)c(F)c2)C(=O)O1` came in with a Ki of 4 µM.

For the compound `O=C1O[C@@H](CO)CN1c1ccc(-c2ccc(N3CCOC3=O)nc2)c(F)c1`, the Ratio in the assay on Haemophilus influenzae [11] was found to be 8; with Enterococcus [16], 2; with Staphylococcus aureus [17] it was 2; in the assay on Haemophilus influenzae [18] it was 2; in the assay with Staphylococcus aureus [19] it was 8; in the assay with Enterococcus [20], 8. Also, the Ratio stood at 2 in the assay with Streptococcus pneumoniae [21] and 8 in the assay with Streptococcus pneumoniae [22].

In turn, `CN1CCN(c2ccc(N3C[C@H](COC(N)=S)OC3=O)cc2F)C=N1` returned an inhibition constant (Ki) in assay [1] of 4 µM.

On to `CC(=O)NC[C@H]1CN(c2ccc(N3CCOCC3)c(F)c2)C(=O)O1` [LINEZOLID], for which, in assay [1], the affinity corresponds to a Ki of 7.9 µM.

On to `CC(=O)NC[C@H]1CN(c2ccc(N3CCN(C(=O)CCl)CC3)c(F)c2)C(=O)O1`, for which the minimal inhibitory concentration (MIC) worked out at 0.5 µg/mL (≈ 1.21 µM) in the assay on Enterococcus faecalis [8], 1 µg/mL (≈ 2.42 µM) in the assay with Staphylococcus aureus [9] and 1 µg/mL (≈ 2.42 µM) in assay [10].
